# According to patent US20200385396A1, “Compond for treatment or prevention of obesity or diseases related to obesity, and application thereof” (SHANGHAI INSTITUTES FOR BIOLOGICAL SCIENCES, CHINESE …, priority 2017, published 2020):
# Experiments:
# Format in all cases: in vivo, mouse
# normal mice = test: Body weight and daily food intake of normal mice under repeated dosing; settings: for body weight after treatment / daily food intake compared with the control group / reduction in total body weight / body weight before treatment: normal mice; for body weight before treatment: start
# Procedure: (§1) Mice were intraperitoneally injected with DMSO or HLY72 (dissolved in DMSO) 25 μL within 2 hours before turning off the lamp. During the intragastric experiment, the high concentration of HLY72 dissolved in DMSO was dissolved in 10% cyclodextrin, and the total volume was 100 μL Volume by gavage, so that the final concentration of DMSO was less than 10%. The diet was weighed at the 3rd hour, the 6th hour, the 12th hour, and the 24th hour respectively after the lights out. The corresponding mouse body weight was also weighed at the same time before the daily administration. The fat content of mice was measured with the magnetic resonance fat content measuring instrument of the animal platform in SIBCB.
# After screening better small-molecule compound and probably determining its key groups, whether HLY72 has a weight-loss effect has become the most wanted result immediately. For this problem, we directly used normal mice intraperitoneally injected with HLY72 for 5 consecutive days.
# In order to further investigate whether the administration of HLY72 by oral gavage also has a weight-loss effect, and because of the convenience of oral administration, many drugs are taken orally. We have also considered one step more for future applications, so that the administration of oral gavage was used to see the effect of HLY72 on the body weight of normal mice. The same was 20 mg/kg HLY72 intragastric treatment for 5 days.
# After confirming that HLY72 can indeed reduce the weight of mice, we examine two more questions: (1) Whether HLY72's weight-reducing effect is dose-dependent; (2) Whether HLY72-like molecule HLY103 not binding to NUCB2 has a weight-reducing effect. […] We also do the statistics on the daily food intake of the mice in these three days, which is consistent with the conclusion of the short-term statistics in the previous day.
# [1] = system: NUCB2 gene knockout heterozygous mice; test: Effect on NUCB2 gene knockout heterozygous mice
# From the text: Heterozygous mice prepared by the CRISPR-Cas9 system were purchased from Xiamen University. […] Heterozygous mice deleted 83 bases in E3 and confirmed by sequencing (FIG. 17c). In order to facilitate the experiment, for mice with 83 bases deleted, we designed primers to detect by PCR (FIG. 17b). Because of the failure to obtain NUCB2 knockout homozygous mice for multiple matches, only heterozygous mice can be used for research.
# [2] = system: high-fat-induced obese mice; test: Weight loss in high-fat-induced obese mice, periodic intermittent administration; settings: 20 mg/kg
# From the text: All animal experiments were approved by the Animal Management Committee of SIBCB. C57BL/6 mice were purchased from Lingchang company (normal mice and high-fat diet-induced obese mice), C57/BLJ6 (NUCB2 gene knockout mice for breeding and background purification) were purchased from Lingchang company, OB/OB mice were purchased from Slack company. A high-fat diet (45% kcal, D12451) for inducing obese mice was purchased from Research Diets. Starting from the sixth week, it was fed with high-fat diet for 14-25 weeks. The rest of the mice used normal diet (13.5% kcal). The mice were housed in the SPF grade animal house of SIBCB. The lights were turned off for 12 hours (19: 00-07: 00), and the lights were turned on for 12 hours (07: 00-19: 00).
# as §1
# According to the previous results, it is considered that HLY72 should not be used continuously for a long time. In view of the fact that many mechanisms of NUCB2 functioning are still unclear, the simplest intermittent drug administration method was selected, that is, the drug was administered for 3 days, stopped for 4 days, one dosing cycle per week, and repeated for 3 courses (FIG. 10a).
# In the high-fat-induced obese mouse model, three days after the first injection of HLY72, the body weight of the mice is decreased from 33.56±0.63 g to 31.61±0.74 g, and three days after the second administration, the body weight of mice is decreased from 31.23±0.57 g to 29.36±0.58 g, three days after the third administration, the body weight of mice is decreased from 29.39±0.51 g to 27.80±0.62 g, at the end of 21 days after 3 cycles, the overall weight of the mice is decreased from 33.56±0.63 g to 27.65±0.54 g (FIG. 10b). The whole process corresponds to 16.88%±0.51% of the total weight loss (FIG. 10c).
# [3] = intraperitoneal 20 mg/kg, 5 consecutive days
smiles,measurement,setting,value
C=Cc1cccc2c1N(C)Cc1cc3c(cc1-2)OCO3 [HLY72],effect on body weight / weight loss,"normal mice; intraperitoneal, 3 consecutive days, HLY72 10 and 20 mg/kg, HLY103 20 mg/kg",concentration gradient
same,body weight after treatment,normal mice; [3],23.37 ± 0.36 g
same,daily food intake compared with the control group,normal mice; [3],significantly reduced
same,reduction in total body weight,normal mice; [3],9.21%±0.74%
same,body weight before treatment,normal mice; intraperitoneal 20 mg/kg,25.73 ± 0.29 g
same,body weight after treatment,"normal mice; oral gavage 20 mg/kg, 5 days",23.14 ± 0.45 g
same,daily food intake compared with the control group,"normal mice; oral gavage 20 mg/kg, 5 days",decreased significantly
same,reduction in total body weight,"normal mice; oral gavage 20 mg/kg, 5 days",8.43%±0.81%
same,body weight before treatment,normal mice; oral gavage 20 mg/kg,25.26 ± 0.37 g
same,effect on daily food intake in heterozygous mice,[1],reduced
same,effect on mouse weight in heterozygous mice,[1],reduced
same,average daily food intake in the three administration periods compared with the DMSO group,[2],significant decrease
same,overall weight at the end of 21 days after 3 cycles,[2]; 3 cycles,27.65 ± 0.54 g
same,body weight before the first administration,"[2]; 3 days on / 4 days off, start",33.56 ± 0.63 g
same,body weight three days after the first injection,[2]; course 1,31.61 ± 0.74 g
same,body weight before the second administration,[2]; course 2,31.23 ± 0.57 g
same,body weight three days after the second administration,[2]; course 2,29.36 ± 0.58 g
same,body weight before the third administration,[2]; course 3,29.39 ± 0.51 g
same,body weight three days after the third administration,[2]; course 3,27.80 ± 0.62 g
same,total weight loss,"[2]; whole process, 21 days, 3 cycles",16.88%±0.51%
